Data on five compounds can be found in publication PMC6709534 (Journal of the American Chemical Society, 2015).

Test [1] relates to H. pylori. Nature of the test: H. pylori growth on 5% horse blood agar. As to conditions: versus ∼8 ng/mL of the 10 best MTAN inhibitors. The class given is cell-based, Helicobacter pylori.
In test [2] the test system is H. pylori. As to conditions: antibiotics used in multidrug therapy and moenomycin A; cited from earlier work.

On to `Cc1ncc([N+](=O)[O-])n1CCO` [Metronidazole], for which the “fold weaker than the 10 best MTAN inhibitors (IC90 ratio)” value with H. pylori [1] is 2000 fold. Moreover, the “IC90 of current antibiotics against H. pylori” value (from here on “IC90 of current antibiotics”) in the test on H. pylori [2] is 16 000 ng/mL. `CC[C@H]1OC(=O)[C@H](C)[C@@H](O[C@H]2C[C@@](C)(OC)[C@@H](O)[C@H](C)O2)[C@H](C)[C@@H](O[C@@H]2O[C@H](C)C[C@H](N(C)C)[C@H]2O)[C@](C)(OC)C[C@@H](C)C(=O)[C@H](C)[C@@H](O)[C@]1(C)O` [clarithromycin]: the “IC90 of current antibiotics” value in the test on H. pylori [2] is 8000 ng/mL. `C[C@H]1COc2c(N3CCN(C)CC3)c(F)cc3c(=O)c(C(=O)O)cn1c23` [levofloxacin]: the “IC90 of current antibiotics” value in the test on H. pylori [2] was 1000 ng/mL. Consider `C=C(C/C=C(\C)CCC=C(C)C)CCC(C)(C)/C=C/CC/C(C)=C\CO[C@H](COP(=O)(O)O[C@H]1O[C@H](C(N)=O)[C@@](C)(O)[C@H](OC(N)=O)[C@H]1O[C@@H]1O[C@H](CO[C@@H]2O[C@H](CO)[C@@H](O)[C@H](O)[C@H]2O)[C@@H](O[C@@H]2O[C@H](C)[C@@H](O[C@@H]3O[C@H](C(=O)NC4=C(O)CCC4=O)[C@H](O)[C@H](O)[C@H]3O)[C@H](O)[C@H]2NC(C)=O)[C@H](O)[C@H]1NC(C)=O)C(=O)O` [moenomycin A], for which the “IC90 of current antibiotics” value in the test on H. pylori [2] is on record as 2000 ng/mL. With `CN(C)[C@@H]1C(O)=C(C(N)=O)C(=O)[C@@]2(O)C(O)=C3C(=O)c4c(O)cccc4[C@@](C)(O)[C@H]3C[C@@H]12` [tetracycline], the “IC90 of current antibiotics” value with H. pylori [2] is given as 500 ng/mL.
